From PubChem BioAssay (NCI)
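Values below derive from 48-hour exposures of cells grown in 96-well plates, with endpoints linearly interpolated between the two concentrations bracketing the appropriate inhibition level. Definition used: TGI = concentration required for complete inhibition of growth.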

Legend:
Test in all cases: inhibition of tumour cell growth, NCI panel, 48 h
OVCAR-8 ovarian = test system: OVCAR-8 ovarian
A549 NSCLC = test system: A549 NSCLC
RXF 393 renal = test system: RXF 393 renal
EKVX NSCLC = test system: EKVX NSCLC
786-0 renal = test system: 786-0 renal
SK-MEL-5 melanoma = test system: SK-MEL-5 melanoma
HT29 colon = test system: HT29 colon
SF-295 CNS = test system: SF-295 CNS
SNB-75 CNS = test system: SNB-75 CNS
SK-MEL-2 melanoma = test system: SK-MEL-2 melanoma
NCI-H226 lung = test system: NCI-H226 lung
SF-268 CNS = test system: SF-268 CNS
U251 CNS = test system: U251 CNS
NCI/ADR-RES ovarian = test system: NCI/ADR-RES ovarian
PC-3 prostate = test system: PC-3 prostate
SNB-19 CNS = test system: SNB-19 CNS
CAKI-1 renal = test system: CAKI-1 renal
HOP-62 NSCLC = test system: HOP-62 NSCLC
ACHN renal = test system: ACHN renal
NCI-H23 lung = test system: NCI-H23 lung
NCI-H522 lung = test system: NCI-H522 lung
NCI-H460 lung = test system: NCI-H460 lung
DU-145 prostate = test system: DU-145 prostate
SN12C renal = test system: SN12C renal
OVCAR-4 ovarian = test system: OVCAR-4 ovarian
UACC-257 melanoma = test system: UACC-257 melanoma
MDA-MB-231 breast = test system: MDA-MB-231 breast
MDA-N = test system: MDA-N
KM12 colon = test system: KM12 colon
HCT-15 colon = test system: HCT-15 colon
K-562 leukemia = test system: K-562 leukemia
M14 melanoma = test system: M14 melanoma
A498 renal = test system: A498 renal
TK-10 renal = test system: TK-10 renal
CCRF-CEM leukemia = test system: CCRF-CEM leukemia
HS 578T breast = test system: HS 578T breast
COLO 205 colon = test system: COLO 205 colon
HOP-92 NSCLC = test system: HOP-92 NSCLC
OVCAR-5 ovarian = test system: OVCAR-5 ovarian
UO-31 renal = test system: UO-31 renal
OVCAR-3 ovarian = test system: OVCAR-3 ovarian
IGROV1 ovarian = test system: IGROV1 ovarian
SF-539 CNS = test system: SF-539 CNS
MOLT-4 leukemia = test system: MOLT-4 leukemia
RPMI-8226 leukemia = test system: RPMI-8226 leukemia
T-47D breast = test system: T-47D breast
SW-620 colon = test system: SW-620 colon
MALME-3M melanoma = test system: MALME-3M melanoma
BT-549 breast = test system: BT-549 breast
HCT-116 colon = test system: HCT-116 colon
SK-MEL-28 melanoma = test system: SK-MEL-28 melanoma
MDA-MB-435 = test system: MDA-MB-435
MCF7 breast = test system: MCF7 breast
LOX IMVI melanoma = test system: LOX IMVI melanoma
SK-OV-3 ovarian = test system: SK-OV-3 ovarian
SR leukemia = test system: SR leukemia
HCC-2998 colon = test system: HCC-2998 colon
HL-60(TB) leukemia = test system: HL-60(TB) leukemia
UACC-62 melanoma = test system: UACC-62 melanoma

## CN=c1sc2c(n1C)C(=O)c1ccccc1C2=O
OVCAR-8 ovarian
  TGI: 15.3 µM
A549 NSCLC
  TGI: 3.94 µM
RXF 393 renal
  TGI: 9.01 µM
EKVX NSCLC
  TGI: 24.3 µM
786-0 renal
  TGI: 20.7 µM
SK-MEL-5 melanoma
  TGI: 6.85 µM
HT29 colon
  TGI: 10.4 µM
SF-295 CNS
  TGI: 3.77 µM
SNB-75 CNS
  TGI: 4.33 µM
SK-MEL-2 melanoma
  TGI: 6.14 µM
NCI-H226 lung
  TGI: 5.65 µM
SF-268 CNS
  TGI: 14.5 µM
U251 CNS
  TGI: 10.5 µM
NCI/ADR-RES ovarian
  TGI: 16.4 µM
PC-3 prostate
  TGI: > 55.1 µM
SNB-19 CNS
  TGI: 10.1 µM
CAKI-1 renal
  TGI: 15.5 µM
HOP-62 NSCLC
  TGI: 3.39 µM
ACHN renal
  TGI: 19.2 µM
NCI-H23 lung
  TGI: 2.38 µM
NCI-H522 lung
  TGI: 29.4 µM
NCI-H460 lung
  TGI: 8.01 µM
DU-145 prostate
  TGI: 3.12 µM
SN12C renal
  TGI: 3.05 µM
OVCAR-4 ovarian
  TGI: 11 µM
UACC-257 melanoma
  TGI: 4.59 µM
MDA-MB-231 breast
  TGI: 33.7 µM
MDA-N
  TGI: 0.467 µM
KM12 colon
  TGI: 13.5 µM
HCT-15 colon
  TGI: 4.82 µM
K-562 leukemia
  TGI: 12.2 µM
M14 melanoma
  TGI: 3.01 µM
A498 renal
  TGI: 30.1 µM
TK-10 renal
  TGI: 35.6 µM
CCRF-CEM leukemia
  TGI: 44.4 µM
HS 578T breast
  TGI: 6.16 µM
COLO 205 colon
  TGI: 11.9 µM
HOP-92 NSCLC
  TGI: 29.9 µM
OVCAR-5 ovarian
  TGI: 9.26 µM
UO-31 renal
  TGI: 19.6 µM
OVCAR-3 ovarian
  TGI: 11.3 µM
IGROV1 ovarian
  TGI: > 41.6 µM
SF-539 CNS
  TGI: 4.2 µM
MOLT-4 leukemia
  TGI: 26.5 µM
RPMI-8226 leukemia
  TGI: 24.6 µM
T-47D breast
  TGI: 17.5 µM
SW-620 colon
  TGI: 4.81 µM
MALME-3M melanoma
  TGI: 1.14 µM
BT-549 breast
  TGI: 3.58 µM
HCT-116 colon
  TGI: 9.1 µM
SK-MEL-28 melanoma
  TGI: 3.61 µM
MDA-MB-435
  TGI: 0.374 µM
MCF7 breast
  TGI: 3.8 µM
LOX IMVI melanoma
  TGI: 10.4 µM
SK-OV-3 ovarian
  TGI: 77.9 µM
SR leukemia
  TGI: 8.97 µM
HCC-2998 colon
  TGI: 20.4 µM

## CCCCCC/C=C\CCCCCCCCC(=O)c1cccc(OC)c1OC
OVCAR-8 ovarian
  TGI: > 100 µM
A549 NSCLC
  TGI: > 100 µM
RXF 393 renal
  TGI: 68.3 µM
EKVX NSCLC
  TGI: > 100 µM
786-0 renal
  TGI: > 100 µM
SK-MEL-5 melanoma
  TGI: 60.9 µM
HT29 colon
  TGI: > 100 µM
SF-295 CNS
  TGI: > 100 µM
SNB-75 CNS
  TGI: > 100 µM
SK-MEL-2 melanoma
  TGI: > 100 µM
NCI-H226 lung
  TGI: > 100 µM
SF-268 CNS
  TGI: > 100 µM
U251 CNS
  TGI: > 100 µM
NCI/ADR-RES ovarian
  TGI: > 100 µM
PC-3 prostate
  TGI: > 100 µM
SNB-19 CNS
  TGI: > 100 µM
CAKI-1 renal
  TGI: > 100 µM
HOP-62 NSCLC
  TGI: > 100 µM
ACHN renal
  TGI: > 100 µM
NCI-H23 lung
  TGI: > 100 µM
NCI-H522 lung
  TGI: > 100 µM
HL-60(TB) leukemia
  TGI: 69.9 µM
DU-145 prostate
  TGI: > 100 µM
SN12C renal
  TGI: > 100 µM
UACC-257 melanoma
  TGI: > 100 µM
MDA-MB-231 breast
  TGI: > 100 µM
MDA-N
  TGI: > 100 µM
KM12 colon
  TGI: > 100 µM
HCT-15 colon
  TGI: > 100 µM
K-562 leukemia
  TGI: > 100 µM
M14 melanoma
  TGI: > 100 µM
A498 renal
  TGI: > 100 µM
TK-10 renal
  TGI: > 100 µM
CCRF-CEM leukemia
  TGI: > 100 µM
HS 578T breast
  TGI: > 100 µM
UACC-62 melanoma
  TGI: > 100 µM
COLO 205 colon
  TGI: > 100 µM
OVCAR-5 ovarian
  TGI: > 100 µM
UO-31 renal
  TGI: > 100 µM
IGROV1 ovarian
  TGI: > 100 µM
SF-539 CNS
  TGI: > 100 µM
MOLT-4 leukemia
  TGI: > 100 µM
RPMI-8226 leukemia
  TGI: > 100 µM
T-47D breast
  TGI: > 100 µM
SW-620 colon
  TGI: > 100 µM
MALME-3M melanoma
  TGI: > 100 µM
BT-549 breast
  TGI: > 100 µM
HCT-116 colon
  TGI: > 100 µM
SK-MEL-28 melanoma
  TGI: > 100 µM
MDA-MB-435
  TGI: > 100 µM
LOX IMVI melanoma
  TGI: 32.9 µM
SK-OV-3 ovarian
  TGI: > 100 µM
SR leukemia
  TGI: > 100 µM
HCC-2998 colon
  TGI: > 100 µM
